Data published in US7807701B2, “Dibenzylamine compounds and pharmaceutical use thereof” (Japan Tobacco Inc., priority 2002, dated 2010).
Where a name gives a salt, the structure may show the parent alone.

These compounds were tested against T1, CETP (Homo sapiens, UniProt P11597) (assay: Inhibitory effect in vitro on CETP activity in total plasma). Conditions: plasma of healthy subject with [3H]CE-HDL3, 37° C., 4 hr; average values.
T1 construct: The donor lipoprotein obtained above was added to plasma of healthy subject; from tissue; host or cells: whole plasma of healthy subject
T1 sequence (P11597 18-493): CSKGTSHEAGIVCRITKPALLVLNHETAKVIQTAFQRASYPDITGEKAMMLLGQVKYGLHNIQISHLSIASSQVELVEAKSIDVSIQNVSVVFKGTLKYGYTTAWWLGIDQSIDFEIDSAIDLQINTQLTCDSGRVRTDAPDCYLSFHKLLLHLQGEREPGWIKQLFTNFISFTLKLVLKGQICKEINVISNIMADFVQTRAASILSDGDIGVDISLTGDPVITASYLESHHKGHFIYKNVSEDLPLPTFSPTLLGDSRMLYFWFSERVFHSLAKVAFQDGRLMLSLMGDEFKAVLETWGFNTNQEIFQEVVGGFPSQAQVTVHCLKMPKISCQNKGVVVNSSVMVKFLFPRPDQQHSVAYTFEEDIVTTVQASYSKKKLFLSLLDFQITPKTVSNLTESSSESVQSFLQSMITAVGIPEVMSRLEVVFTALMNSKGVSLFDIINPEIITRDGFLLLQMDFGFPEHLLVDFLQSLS
Assay type: biochemical
Protocol: Potassium bromide (KBr) was added to plasma (40 mL) of healthy subject and the mixture was adjusted to have a specific density d=1.125 g/mL. The mixture was subjected to density gradient centrifugation (227,000×g, 4° C., 17 hr) and a fraction showing a specific density of d>1.125 g/mL (HDL3 fraction) was harvested. The obtained fraction was dialyzed against PBS solution [10 mmol/L Na2HPO4; 10 mmol/L NaH2PO4; 0.15 mol/L NaCl; […] (pH 7.4)]. Then, tritium-labeled cholesterol (37 MBq) was dissolved in 95% ethanol, gradually added to the above-mentioned HDL3 fraction with stirring and incubated at 37° C. for 18 hr. [By this operation, tritium-labeled cholesterol was esterified by the action of lecithin acyl transferase (LCAT) present on the HDL3 surface and taken up into HDL3 as tritium-labeled cholesteryl ester ([^3H]CE)]. After incubation, KBr was added, the mixture was adjusted to have a specific density d=1.21 g/mL, subjected to density gradient centrifugation (227,000×g, 4° C., 17 hr) and a fraction of specific density […] was harvested. The obtained fraction was dialyzed against the aforementioned PBS solution to give HDL3 incorporating [^3H]CE ([^3H]CE-HDL3, specific density: 1.125<d<1.21, specific activity: 10,000 dpm/μL), which was used as a donor lipoprotein.
The donor lipoprotein obtained above was added to plasma of healthy subject to prepare a [^3H]CE-HDL3-containing plasma (1,000 dpm/μL). The compound was dissolved in dimethyl formamide. A solution of the compound or a solvent alone (2 μL) and the [^3H]CE-HDL3-containing plasma (100 μL) were added into a microtube, and this was incubated at 37° C. or 4° C. for 4 hr. After ice-cooling, TBS solution [100 μL, 20 mmol/L Tris; 0.15 mol/L NaCl (pH 7.4)] containing 1 mol/L magnesium chloride and 2% dextran sulfate was added to each microtube and the mixture was thoroughly stirred. After keeping at 4° C. for 30 min, the mixture was centrifuged (10,000×g, 4° C., 10 min), and the radioactivity in the obtained supernatant (HDL fraction) was measured with a scintillation counter. […] The concentration of the compound necessary for inhibiting the CETP activity by 50% was calculated as an IC50 value.

In order of rising IC50:
1. CCN(C[C@H]1CC[C@H](CO)CC1)c1cc(C(F)(F)F)c(C)cc1CN(Cc1cc(C(F)(F)F)cc(C(F)(F)F)c1)c1nnn(C)n1 [Example 141, trans-(4-{[N-(2-{[N′-[3,5-bis(trifluoromethyl)benzyl]-N′-(2-methyl-2H-tetrazol-5-yl)amino]methyl}-4-methyl-5-trifluoromethylphenyl)-N-ethylamino]methyl}cyclohexyl)methanol hydrochloride]  120 nM
2. CCN(CC1CCCC1)c1ccc(C(F)(F)F)cc1CN(Cc1cc(C#N)cc(C(F)(F)F)c1)c1nnn(C)n1 [Example 34, 3-{[N-[2-(N′-cyclopentylmethyl-N′-ethylamino)-5-trifluoromethylbenzyl]-N-(2-methyl-2H-tetrazol-5-yl)amino]methyl}-5-trifluoromethylbenzonitrile hydrochloride]  220 nM
3. CCN(CC1CCCC1)c1cc2c(cc1CN(Cc1cc(C(F)(F)F)cc(C(F)(F)F)c1)c1nnn(C)n1)CCCC2 [Example 1, N-[3-(N′-cyclopentylmethyl-N′-ethylamino)-5,6,7,8-tetrahydronaphthalen-2-ylmethyl]-N-[3,5-bis(trifluoromethyl)benzyl]-(2-methyl-2H-tetrazol-5-yl)amine]  230 nM
4. CCN(CC1CCCC1)c1cc2c(cc1CN(Cc1cc(C(F)(F)F)cc(C(F)(F)F)c1)c1ncn(C)n1)CCC2 [Example 12, N-[3,5-bis(trifluoromethyl)benzyl]-N-[6-(N′-cyclopentylmethyl-N′-ethylamino)indan-5-ylmethyl]-(1-methyl-1H-[1,2,4]triazol-3-yl)amine]  250 nM
5. CCN(CCCCC(=O)O)c1cc2c(cc1CN(Cc1cc(C(F)(F)F)cc(C(F)(F)F)c1)c1ncn(C)n1)CCCC2 [Example 76, 5-[N-(3-{[N′-[3,5-bis(trifluoromethyl)benzyl]-N′-(1-methyl-1H-[1,2,4]triazol-3-yl)amino]methyl}-5,6,7,8-tetrahydronaphthalen-2-yl)-N-ethylamino]pentanoic acid hydrochloride]  290 nM
6. CCN(C[C@H]1CC[C@H](C(=O)O)CC1)c1cc2c(cc1CN(Cc1cc(C(F)(F)F)cc(C(F)(F)F)c1)c1ccn(C)n1)CCCC2 [Example 44, trans-4-{[N-(3-{[N′-[3,5-bis(trifluoromethyl)benzyl]-N′-(1-methyl-1H-pyrazol-3-yl)amino]methyl}-5,6,7,8-tetrahydronaphthalen-2-yl)-N-ethylamino]methyl}cyclohexanecarboxylic acid hydrochloride]  360 nM
7. CCN(C[C@H]1CC[C@H](C(=O)O)CC1)c1ccc(OC(F)(F)F)cc1CN(Cc1cc(C(F)(F)F)cc(C(F)(F)F)c1)c1ccc(C)cc1 [Example 127, trans-4-{[N-(2-{[N′-[3,5-bis(trifluoromethyl)benzyl]-N′-(p-tolyl)amino]methyl}-4-trifluoromethoxyphenyl)-N-ethylamino]methyl}cyclohexanecarboxylic acid hydrochloride]  370 nM
8. CCN(C[C@H]1CC[C@H](C(=O)O)CC1)c1cc2c(cc1CN(Cc1cc(C#N)cc(C(F)(F)F)c1)c1cc(C)no1)CCCC2 [Example 72, trans-4-{[N-(3-{[N′-(3-cyano-5-trifluoromethylbenzyl)-N′-(3-methylisoxazol-5-yl)amino]methyl}-5,6,7,8-tetrahydronaphthalen-2-yl)-N-ethylamino]methyl}cyclohexanecarboxylic acid hydrochloride]  390 nM
9. CCN(C[C@H]1CC[C@H](C(=O)O)CC1)c1cc2c(cc1CN(Cc1cc(C(F)(F)F)cc(C(F)(F)F)c1)c1nnn(C)n1)CCC2 [Example 51, trans-4-{[N-(6-{[N′-[3,5-bis(trifluoromethyl)benzyl]-N′-(2-methyl-2H-tetrazol-5-yl)amino]methyl}indan-5-yl)-N-ethylamino]methyl}cyclohexanecarboxylic acid hydrochloride]  410 nM
10. CCN(CCC(C)(C)CC(=O)O)c1cc2c(cc1CN(Cc1cc(C(F)(F)F)cc(C(F)(F)F)c1)c1noc(C)n1)CCC2 [Example 103, 5-[N-(6-{[N′-[3,5-bis(trifluoromethyl)benzyl]-N′-(5-methyl-[1,2,4]oxadiazol-3-yl)amino]methyl}indan-5-yl)-N-ethylamino]-3,3-dimethylpentanoic acid hydrochloride]  430 nM
11. CCN(C[C@H]1CC[C@H](C(=O)O)CC1)c1cc2c(cc1CN(Cc1cc(C(F)(F)F)cc(C(F)(F)F)c1)c1cc(C)no1)CCCC2 [Example 71, trans-4-{[N-(3-{[N′-[3,5-bis(trifluoromethyl)benzyl]-N′-(3-methylisoxazol-5-yl)amino]methyl}-5,6,7,8-tetrahydronaphthalen-2-yl)-N-ethylamino]methyl}cyclohexanecarboxylic acid hydrochloride]  440 nM
12. CCN(CCCCC(=O)O)c1cc2c(cc1CN(Cc1cc(C#N)cc(C(F)(F)F)c1)c1ncn(C)n1)CCCC2 [Example 77, 5-[N-(3-{[N′-(3-cyano-5-trifluoromethylbenzyl)-N′-(1-methyl-1H-[1,2,4]triazol-3-yl)amino]methyl}-5,6,7,8-tetrahydronaphthalen-2-yl)-N-ethylamino]pentanoic acid hydrochloride]  540 nM
13. CCN(C[C@H]1CC[C@H](C(=O)OC)CC1)c1cc2c(cc1CN(Cc1cc(C#N)cc(C(F)(F)F)c1)c1ccn(C)n1)CCCC2 [Example 43, methyl trans-4-{[N-(3-{[N′-(3-cyano-5-trifluoromethylbenzyl)-N′-(1-methyl-1H-pyrazol-3-yl)amino]methyl}-5,6,7,8-tetrahydronaphthalen-2-yl)-N-ethylamino]methyl}cyclohexanecarboxylate hydrochloride]  550 nM
14. CCN(CC1CCCC1)c1cc2c(cc1CN(Cc1cc(C(F)(F)F)cc(C(F)(F)F)c1)c1ccn(C)n1)CCC2 [Example 27, N-[3,5-bis(trifluoromethyl)benzyl]-N-[6-(N′-cyclopentylmethyl-N′-ethylamino)indan-5-ylmethyl]-(1-methyl-1H-pyrazol-3-yl)amine hydrochloride]  580 nM
15. CCN(CC1CCCC1)c1cc2c(cc1CN(Cc1cc(C#N)cc(C(F)(F)F)c1)c1ccccc1)CCC2 [Example 13, 3-({N-[6-(N′-cyclopentylmethyl-N′-ethylamino)indan-5-ylmethyl]-N-phenylamino}methyl)-5-trifluoromethylbenzonitrile]  580 nM
16. CCN(CCCCC(=O)O)c1cc2c(cc1CN(Cc1cc(C(F)(F)F)cc(C(F)(F)F)c1)c1noc(C)n1)CCC2 [Example 8, 5-{N-(6-{[N′-[3,5-bis(trifluoromethyl)benzyl]-N′-(5-methyl-[1,2,4]oxadiazol-3-yl)amino]methyl}indan-5-yl)-N-ethylamino}pentanoic acid hydrochloride]  630 nM
17. CCN(C[C@H]1CC[C@H](C(=O)O)CC1)c1cc2c(cc1CN(Cc1cc(C(F)(F)F)cc(C(F)(F)F)c1)c1cc(C)no1)CCC2 [Example 53, trans-4-{[N-(6-{[N′-[3,5-bis(trifluoromethyl)benzyl]-N′-(3-methylisoxazol-5-yl)amino]methyl}indan-5-yl)-N-ethylamino]methyl}cyclohexanecarboxylic acid hydrochloride]  700 nM
18. CCN(CCCCC(=O)O)c1cc2c(cc1CN(Cc1cc(C(F)(F)F)cc(C(F)(F)F)c1)c1ncn(C)n1)CCC2 [Example 58, 5-[N-(6-{[N′-[3,5-bis(trifluoromethyl)benzyl]-N′-(1-methyl-1H-[1,2,4]triazol-3-yl)amino]methyl}indan-5-yl)-N-ethylamino]pentanoic acid hydrochloride]  715 nM
19. CCN(CCCCC(=O)O)c1cc2c(cc1CN(Cc1cc(C#N)cc(C(F)(F)F)c1)c1ccn(C)n1)CCCC2 [Example 66, 5-[N-(3-{[N′-(3-cyano-5-trifluoromethylbenzyl)-N′-(1-methyl-1H-pyrazol-3-yl)amino]methyl}-5,6,7,8-tetrahydronaphthalen-2-yl)-N-ethylamino]pentanoic acid hydrochloride]  870 nM
